Source: ChEMBL document CHEMBL3286373, “Toward the Development of Bivalent Ligand Probes of Cannabinoid CB1 and Orexin OX1 Receptor Heterodimers” (ACS Med Chem Lett, 2014)

Assays:
[1] = target: T1, Cannabinoid CB1 receptor/orexin receptor 1 complex (Homo sapiens) (UniProt P21554+O43613); conditions: RD-HGA16
[2] = target: T1, Cannabinoid CB1 receptor/orexin receptor 1 complex (Homo sapiens); conditions: RD-HGA16; remark: listed apart in the source
[3] = target: T2, Orexin/Hypocretin receptor type 1 (Homo sapiens) (UniProt O43613); assay: Antagonist activity at OX1 receptor (unknown origin) expressed in RD-HGA16 cells assessed as inhibition of orexin A-induced calcium mobilization by fluorometric imaging plate reader analysis; format: functional, cell-based
T2 sequence (whole entry): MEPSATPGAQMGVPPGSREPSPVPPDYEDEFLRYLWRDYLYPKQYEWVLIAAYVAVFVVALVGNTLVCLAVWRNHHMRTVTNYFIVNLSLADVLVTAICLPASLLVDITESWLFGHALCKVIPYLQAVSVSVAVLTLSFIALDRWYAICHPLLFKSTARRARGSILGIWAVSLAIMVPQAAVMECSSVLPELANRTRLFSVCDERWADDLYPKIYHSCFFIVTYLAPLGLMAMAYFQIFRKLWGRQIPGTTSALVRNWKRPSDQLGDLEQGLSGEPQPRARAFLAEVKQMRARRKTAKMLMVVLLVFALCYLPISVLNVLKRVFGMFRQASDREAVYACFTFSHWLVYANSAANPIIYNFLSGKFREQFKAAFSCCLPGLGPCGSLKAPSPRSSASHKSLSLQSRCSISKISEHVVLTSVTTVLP

[4] = target: Cannabinoid receptor 1 (Homo sapiens) (UniProt P21554); conditions: RD-HGA16
Cannabinoid receptor 1 (Homo sapiens), sequence (P21554 whole entry): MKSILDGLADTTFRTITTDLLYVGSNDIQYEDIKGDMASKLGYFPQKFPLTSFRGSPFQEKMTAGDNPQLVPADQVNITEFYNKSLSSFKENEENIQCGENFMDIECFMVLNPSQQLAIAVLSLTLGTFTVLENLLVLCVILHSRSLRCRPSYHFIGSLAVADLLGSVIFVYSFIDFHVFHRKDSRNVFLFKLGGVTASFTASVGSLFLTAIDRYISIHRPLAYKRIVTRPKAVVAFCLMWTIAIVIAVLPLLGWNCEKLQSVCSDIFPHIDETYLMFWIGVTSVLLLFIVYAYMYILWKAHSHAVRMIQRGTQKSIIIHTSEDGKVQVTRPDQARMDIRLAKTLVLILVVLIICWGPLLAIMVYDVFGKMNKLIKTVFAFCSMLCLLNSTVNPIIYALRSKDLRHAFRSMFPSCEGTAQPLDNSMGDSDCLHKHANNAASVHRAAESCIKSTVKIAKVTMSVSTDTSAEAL

| Ke [1] [nM] | Ke [2] [µM] | Ke [3] [nM] | Ke [4] [nM] | Structure (SMILES) |
| --- | --- | --- | --- | --- |
| 230 | > 10 | 5500 | 3000 | COc1ccc(CC2c3cc(OC)c(OC)cc3CCN2C(C(=O)NCCCCCCCN(C)CCCCCCCNC(=O)c2nn(-c3ccc(Cl)cc3Cl)c(-c3ccc(Cl)cc3)c2C)c2ccccc2)cc1OC (centres undefined) |
| 580 | > 10 | 8600 | 8000 | COc1ccc(CC2c3cc(OCCCCCCC(=O)NCCOCCOCCOCCNC(=O)c4nn(-c5ccc(Cl)cc5Cl)c(-c5ccc(Cl)cc5)c4C)c(OC)cc3CCN2CC(=O)NCc2ccccc2)cc1OC (centres undefined) |
| 410 | > 10 | > 10000 | 1100 | COc1cc2c(cc1OC)C(Cc1ccc(OC(=O)CCCCCCN(C)CCCCCCCCCCCCNC(=O)c3nn(-c4ccc(Cl)cc4Cl)c(-c4ccc(Cl)cc4)c3C)c(OC)c1)N(CC(=O)NCc1ccccc1)CC2 (centres undefined) |
| 610 | > 10 | 8460 | 1800 | COc1cc2c(cc1OC)C(Cc1ccc(OC(=O)CCCCCCN(C)CCCCCCCNC(=O)c3nn(-c4ccc(Cl)cc4Cl)c(-c4ccc(Cl)cc4)c3C)c(OC)c1)N(CC(=O)NCc1ccccc1)CC2 (centres undefined) |
|  |  | 200 |  | COc1ccc(CC2c3cc(OC)c(OC)cc3CCN2CC(=O)NCc2ccccc2)cc1OC (centres undefined) |
|  |  | 43 |  | CCCC(=O)Oc1ccc(CC2c3cc(OC)c(OC)cc3CCN2CC(=O)NCc2ccccc2)cc1OC (centres undefined) |
| > 10000 | 0.032 | 45 | > 10000 | Cc1nc2ccc(NC(=O)Nc3ccnc4cccnc34)cc2o1 |
| 110 | 5.9 | > 10000 | 1800 | COc1cc2c(cc1OC)C(Cc1ccc(OC(=O)CCCCCCN(C)CCCCCCCCCCNC(=O)c3nn(-c4ccc(Cl)cc4Cl)c(-c4ccc(Cl)cc4)c3C)c(OC)c1)N(CC(=O)NCc1ccccc1)CC2 (centres undefined) |
|  |  | 22 |  | CCCCCCCNC(=O)[C@@H](c1ccccc1)N1CCc2cc(OC)c(OC)cc2C1Cc1ccc(OC)c(OC)c1 (some centres undefined) |
|  |  | 120 |  | CCCCCCOc1ccc(CC2c3cc(OC)c(OC)cc3CCN2CC(=O)NCc2ccccc2)cc1OC (centres undefined) |
|  |  | 78 |  | CCCC(=O)Oc1cc2c(cc1OC)CCN(CC(=O)NCc1ccccc1)C2Cc1ccc(OC)c(OC)c1 (centres undefined) |
| 1200 | > 10 | 8800 | 2100 | COc1ccc(CC2c3cc(OC(=O)CCCCCCN(C)CCCCCCCNC(=O)c4nn(-c5ccc(Cl)cc5Cl)c(-c5ccc(Cl)cc5)c4C)c(OC)cc3CCN2CC(=O)NCc2ccccc2)cc1OC (centres undefined) |
|  |  | 590 |  | CCCCCCCNC(=O)CN1CCc2cc(OC)c(OC)cc2C1Cc1ccc(OC)c(OC)c1 (centres undefined) |
| 420 | 4.5 | 3500 | 1800 | COc1ccc(CC2c3cc(OC(=O)CCCCCCN(C)CCCCOCCCCOCCCCOCCNC(=O)c4nn(-c5ccc(Cl)cc5Cl)c(-c5ccc(Cl)cc5)c4C)c(OC)cc3CCN2CC(=O)NCc2ccccc2)cc1OC (centres undefined) |
|  |  | 310 |  | CCCCCCOc1cc2c(cc1OC)CCN(CC(=O)NCc1ccccc1)C2Cc1ccc(OC)c(OC)c1 (centres undefined) |
